Measured values reported in patent US20120264735A1 (priority 2009, published 2012).

What follows are compounds tested against T1, c-Met kinase (recombinant c-Met) (Homo sapiens, UniProt P08581) (assay: In vitro kinase assay I (homogeneous time-resolved fluorescence tyrosine kinase assay)).
T1 construct: 0.27 nM recombinant c-Met
T1 sequence (P08581 25-1390): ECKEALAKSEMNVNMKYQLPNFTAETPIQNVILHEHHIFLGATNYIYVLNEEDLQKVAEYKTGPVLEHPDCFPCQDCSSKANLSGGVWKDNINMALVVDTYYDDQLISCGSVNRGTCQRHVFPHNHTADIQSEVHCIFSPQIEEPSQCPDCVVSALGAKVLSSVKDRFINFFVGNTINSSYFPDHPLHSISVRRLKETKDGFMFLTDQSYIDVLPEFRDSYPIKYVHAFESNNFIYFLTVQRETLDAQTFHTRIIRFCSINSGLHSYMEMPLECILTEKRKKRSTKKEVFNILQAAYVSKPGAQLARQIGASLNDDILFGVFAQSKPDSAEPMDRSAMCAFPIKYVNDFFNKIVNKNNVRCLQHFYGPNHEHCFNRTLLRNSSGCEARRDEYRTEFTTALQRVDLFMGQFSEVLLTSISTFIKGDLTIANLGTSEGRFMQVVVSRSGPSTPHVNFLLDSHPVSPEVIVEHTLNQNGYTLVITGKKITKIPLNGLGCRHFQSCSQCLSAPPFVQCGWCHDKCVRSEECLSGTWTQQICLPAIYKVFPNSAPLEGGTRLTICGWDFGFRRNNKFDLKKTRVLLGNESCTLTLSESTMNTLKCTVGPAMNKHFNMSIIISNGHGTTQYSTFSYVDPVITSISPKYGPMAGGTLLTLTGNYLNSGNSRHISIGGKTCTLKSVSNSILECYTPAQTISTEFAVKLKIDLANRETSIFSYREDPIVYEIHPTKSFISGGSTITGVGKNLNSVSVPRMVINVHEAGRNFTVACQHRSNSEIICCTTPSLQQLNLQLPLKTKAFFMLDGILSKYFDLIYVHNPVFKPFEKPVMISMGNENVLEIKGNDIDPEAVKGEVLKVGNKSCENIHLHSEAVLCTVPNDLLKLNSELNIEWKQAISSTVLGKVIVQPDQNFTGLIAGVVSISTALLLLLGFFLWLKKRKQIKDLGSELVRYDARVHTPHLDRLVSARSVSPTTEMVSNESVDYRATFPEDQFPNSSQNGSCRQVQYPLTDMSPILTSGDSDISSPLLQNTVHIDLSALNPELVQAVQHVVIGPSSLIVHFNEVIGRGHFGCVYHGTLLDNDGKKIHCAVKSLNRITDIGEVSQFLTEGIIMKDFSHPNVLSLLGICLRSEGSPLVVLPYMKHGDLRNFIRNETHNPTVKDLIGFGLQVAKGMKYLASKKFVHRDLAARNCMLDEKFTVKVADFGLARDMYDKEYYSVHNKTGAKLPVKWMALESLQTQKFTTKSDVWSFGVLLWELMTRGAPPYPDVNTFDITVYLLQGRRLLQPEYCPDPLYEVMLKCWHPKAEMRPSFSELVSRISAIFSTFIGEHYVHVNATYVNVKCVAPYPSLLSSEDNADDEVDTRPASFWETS
Type: biochemical
In short: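 Biotinylated peptide (0.5 μM) phosphorylated by 0.2 nM recombinant c-Met with 50 μM MgATP, 60 min at room temperature, pH 7.4, 5% DMSO. EDTA stop; HTRF read with Eu-anti-phosphotyrosine antibody and streptavidin-APC. IC50 from 4-parameter logistic fit.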
`CC(C)COC(=O)Nc1cccc(Cc2nn(-c3cnn(CCO)c3)ccc2=O)c1` [Example 645, 2-methylpropyl [3-({1-[1-(2-hydroxyethyl)-1H-pyrazol-4-yl]-4-oxo-1,4-dihydropyridazin-3-yl}methyl)phenyl] carbamate] gave an IC50 of under 100 nM.
`CCOC(=O)Nc1cccc(Cc2nn(-c3cccc(O)c3)ccc2=O)c1` [Example 646, Ethyl(3-{[1-(3-hydroxyphenyl)-4-oxo-1,4-dihydropyridazin-3-yl]methyl}phenyl)carbamate] showed an IC50 of under 100 nM.
In the case of `CCOC(=O)Nc1cccc(Cc2nn(-c3cnn(CCN)c3)ccc2=O)c1` [Example 647, Ethyl [3-({1-[1-(2-aminoethyl)-1H-pyrazol-4-yl]-4-oxo-1,4-dihydropyridazin-3-yl}methyl)phenyl]carbamate], the IC50 is reported as 100 to 1000 nM.
Compound `CC(C)COC(=O)Nc1cccc(Cc2nn(-c3cnn(CCN)c3)ccc2=O)c1` [Example 648, 2-methylpropyl [3-({1-[1-(2-aminoethyl)-1H-pyrazol-4-yl]-4-oxo-1,4-dihydropyridazin-3-yl}methyl)phenyl]carbamate] has an IC50 of under 100 nM.
`CCOC(=O)Nc1cccc(Cc2nn(-c3cccc(OC)c3)ccc2=O)c1` [Example 649, Ethyl(3-{[1-(3-methoxyphenyl)-4-oxo-1,4-dihydropyridazin-3-yl]methyl}phenyl)carbamate] showed an IC50 of 100 to 1000 nM.
For `CCOC(=O)Nc1cccc(Cc2nn(-c3cccc(OCC)c3)ccc2=O)c1` [Example 650, Ethyl(3-{[1-(3-ethoxyphenyl)-4-oxo-1,4-dihydropyridazin-3-yl]methyl}phenyl)carbamate], the IC50 was 100 to 1000 nM.
For `CCOc1cnc(-c2cccc(Cc3nn(-c4cnn(C5COC5)c4)ccc3=O)c2)nc1` [Example 660, 3-[3-(5-Ethoxypyrimidin-2-yl)benzyl]-1-[1-(oxetan-3-yl)-1H-pyrazol-4-yl]pyridazin-4(1H)-one], the IC50 was under 100 nM.
Compound `CCOc1cnc(-c2cccc(Cc3nn(-c4cnn(C5CN(C(=O)OC(C)(C)C)C5)c4)ccc3=O)c2)nc1` [Example 661, tert-butyl 3-(4-{3-[3-(5-ethoxypyrimidin-2-yl)benzyl]-4-oxopyridazin-1(4H)-yl}-1H-pyrazol-1-yl)acetidine-1-carboxylate] has an IC50 of under 100 nM.
For `CCOc1cnc(-c2cccc(Cc3nn(-c4cnn(CC(=O)N(C)C)c4)ccc3=O)c2)nc1` [Example 662, 2-(4-{3-[3-(5-ethoxypyrimidin-2-yl)benzyl]-4-oxopyridazin-1(4H)-yl}-1H-pyrazol-1-yl)-N,N-dimethylacetamide], the IC50 was 100 to 1000 nM.
`CCOc1cnc(-c2cccc(Cc3nn(-c4cnn(C5CNC5)c4)ccc3=O)c2)nc1` [Example 663, 1-(1-Azetidin-3-yl-1H-pyrazol-4-yl)-3-[3-(5-ethoxypyrimidin-2-yl)benzyl]pyridazin-4(1H)-one] gave an IC50 of under 100 nM.
Work on `CCOc1cnc(-c2cccc(Cc3nn(-c4cnn(C5CCNCC5)c4)ccc3=O)c2)nc1` [Example 664, 3-[3-(5-ethoxypyrimidin-2-yl)benzyl]-1-(1-piperidin-4-yl-1H-pyrazol-4-yl)pyridazin-4(1H)-one] yielded an IC50 of under 100 nM.
For `CCOc1cnc(-c2cccc(Cc3nn(-c4cnn(CC(C)(C)O)c4)ccc3=O)c2)nc1` [Example 666, 3-[3-(5-Ethoxypyrimidin-2-yl)benzyl]-1-[1-(2-hydroxy-2-methylpropyl)-1H-pyrazol-4-yl]pyridazin-4(1H)-one], the IC50 was under 100 nM.
For `CC(C)COC(=O)Nc1cccc(Cc2nn(-c3cnn(CCCN(C)C)c3)ccc2=O)c1` [Example 667, 2-Methylpropyl {3-[(1-{1-[3-(dimethylamino)propyl]-1H-pyrazol-4-yl}-4-exo-1,4-dihydropyridazin-3-yl)methyl]phenyl}carbamate], the IC50 was 100 to 1000 nM.
`CCOc1cnc(-c2cccc(Cc3nn(-c4cnn(C5CN(C)C5)c4)ccc3=O)c2)nc1` [Example 668, 3-[3-(5-Ethoxypyrimidin-2-yl)benzyl]-1-[1-(1-methylazetidin-3-yl)-1H-pyrazol-4-yl]pyridazin-4(1H)-one] gave an IC50 of 100 to 1000 nM.
With `O=c1ccn(-c2ccccc2)nc1Cc1cccc(-c2ncccn2)c1` [Example 669, 1-Phenyl-3-[3-(pyrimidin-2-yl)benzyl]pyridazin-4(1H)-one] the IC50 was 100 to 1000 nM.
`Cn1cnc(-c2cccc(Cc3nn(-c4ccccc4)ccc3=O)c2)n1` [Example 670, 3-[3-(1-Methyl-1H-1,2,4-triazol-3-yl)benzyl]-1-phenylpyridazin-4(1H)-one] was tested, and the IC50 was 100 to 1000 nM.
In the case of `O=c1ccn(-c2ccccc2)nc1Cc1cccc(-c2ccccn2)c1` [Example 671, 1-phenyl-3-(3-pyridin-2-ylbenzyl) pyridazin-4(1H)-one], the IC50 is reported as 1000 to 3000 nM.
`Cc1cnc(-c2cccc(Cc3nn(-c4cnn(C)c4)ccc3=O)c2)[nH]1` [Example 672, 3-[3-(5-Methyl-1H-imidazol-2-yl)benzyl]-1-(1-methyl-1H-pyrazol-4-yl)pyridazin-4(1H)-one] showed an IC50 of 1000 to 3000 nM.
In the case of `Cn1cnc(-c2cccc(Cc3nn(-c4cnn(C)c4)ccc3=O)c2)c1` [Example 673, 3-[3-(1-methyl-1H-imidazol-4-yl)benzyl]-1-(1-methyl-1H-pyrazol-4-yl)pyridazin-4(1H)-one], the IC50 is reported as 100 to 1000 nM.
Compound `CCOC(=O)c1coc(-c2cccc(Cc3nn(-c4cnn(C)c4)ccc3=O)c2)n1` [Example 674, ethyl 2-(3-{[1-(1-methyl-1H-pyrazol-4-yl)-4-oxo-1,4-dihydropyridazin-3-yl]methyl}phenyl)-1,3-oxazole-4-carboxylate] has an IC50 of 1000 to 3000 nM.
In the case of `CCOC(=O)c1cnc(-c2cccc(Cc3nn(-c4cnn(C)c4)ccc3=O)c2)o1` [Example 675, ethyl 2-(3-{[1-(1-methyl-1H-pyrazol-4-yl)-4-oxo-1,4-dihydropyridazin-3-yl]methyl}phenyl)-1,3-oxazole-5-carboxylate], the IC50 is reported as 100 to 1000 nM.
`Cn1cc(-n2ccc(=O)c(Cc3cccc(-c4ncc(CO)s4)c3)n2)cn1` [Example 676, 3-{3-[5-(hydroxymethyl)-1,3-thiazol-2-yl]benzyl}-1-(1-methyl-1H-pyrazol-4-yl)pyridazin-4(1H)-one] was tested, and the IC50 was 100 to 1000 nM.
`CCOc1ccc(-c2cccc(Cc3nn(-c4cnn(C)c4)ccc3=O)c2)nc1` [Example 677] showed an IC50 of under 100 nM.
Compound `CC(C)COC(=O)Nc1cccc(Cc2nn(-c3cnn(CCCC(=O)N(C)C)c3)ccc2=O)c1` [Example 696, 2-Methylpropyl {3-[(1-{1-[4-(dimethylamino)-4-oxobutyl]-1H-pyrazol-4-yl}-4-oxo-1,4-dihydropyridazin-3-yl)methyl]phenyl}carbamate] has an IC50 of under 100 nM.
`CNC(=O)CCCn1cc(-n2ccc(=O)c(Cc3cccc(NC(=O)OCC(C)C)c3)n2)cn1` [Example 697, 2-methylpropyl {3-[(1-{1-[4-(methylamino)-4-oxobutyl]-1H-pyrazol-4-yl}-4-oxo-1,4-dihydropyridazin-3-yl)methyl]phenyl} carbamate] was tested, and the IC50 was under 100 nM.
`CC(C)COC(=O)Nc1cccc(Cc2nn(-c3cnn(CCCC(=O)N4CCOCC4)c3)ccc2=O)c1` [Example 698, 2-methylpropyl [3-({1-[1-(4-morpholin-4-yl-4-oxobutyl)-1H-pyrazol-4-yl]-4-foundoxo-1,4-dihydropyridazin-3-yl}methyl)phenyl] carbamate] was tested, and the IC50 was under 100 nM.
In the case of `CC(C)COC(=O)Nc1cccc(Cc2nn(-c3cnn(CCCC(=O)N4CCCCC4)c3)ccc2=O)c1` [Example 699, 2-methylpropyl [3-({4-oxo-1-[1-(4-oxo-4-piperidin-1-ylbutyl)-1H-pyrazol-4-yl]-1,4-dihydropyridazin-3-yl}methyl)phenyl] carbamate], the IC50 is reported as under 100 nM.
Compound `CC(C)COC(=O)Nc1cccc(Cc2nn(-c3cnn(CCCC(=O)N4CCCC4)c3)ccc2=O)c1` [Example 700, 2-methylpropyl [3-({4-oxo-1-[1-(4-oxo-4-pyrrolidin-1-ylbutyl)-1H-pyrazol-4-yl]-1,4-dihydropyridazin-3-yl}methyl)phenyl] carbamate] has an IC50 of under 100 nM.
Compound `CC(C)COC(=O)Nc1cccc(Cc2nn(-c3cnn(CCCC(=O)NC4COC4)c3)ccc2=O)c1` [Example 701, 2-methylpropyl {3-[(1-{1-[4-(oxetan-3-ylamino)-4-oxobutyl]-1H-pyrazol-4-yl}-4-oxo-1,4-dihydropyridazin-3-yl)methyl]phenyl} carbamate] has an IC50 of under 100 nM.
`CNC(=O)CCn1cc(-n2ccc(=O)c(Cc3cccc(NC(=O)OCC(C)C)c3)n2)cn1` [Example 702, 2-methylpropyl {3-[(1-{1-[3-(methylamino)-3-oxopropyl]-1H-pyrazol-4-yl}-4-oxo-1,4-dihydropyridazin-3-yl)methyl]phenyl} carbamate] showed an IC50 of under 100 nM.
`CC(C)COC(=O)Nc1cccc(Cc2nn(-c3cnn(CCC(=O)N4CCOCC4)c3)ccc2=O)c1` [Example 703, 2-methylpropyl [3-({1-[1-(3-morpholin-4-yl-3-oxopropyl-1H-pyrazol-4-yl]-4-oxo-1,4-dihydropyridazin-3-yl}methyl)phenyl] carbamate] showed an IC50 of under 100 nM.
For `CC(C)COC(=O)Nc1cccc(Cc2nn(-c3cnn(CCC(=O)NC4COC4)c3)ccc2=O)c1` [Example 704, 2-methylpropyl {3-[(1-{1-[3-(oxetan-3-ylamino)-3-oxopropyl]-1H-pyrazol-4-yl}-4-oxo-1,4-dihydropyridazin-3-yl)methyl]phenyl} carbamate], the IC50 was under 100 nM.
With `CC(C)COC(=O)Nc1cccc(Cc2nn(-c3cnn(CCCC(=O)NCC(C)(C)O)c3)ccc2=O)c1` [Example 705, 2-methylpropyl (3-{[1-(1-{4-[(2-hydroxy-2-methylpropyl)amino]-4-oxobutyl}-1H-pyrazol-4-yl)-4-oxo-1,4-dihydropyridazin-3-yl]methyl}phenyl) carbamate] the IC50 was under 100 nM.
For `Cn1cc(-n2ccc(=O)c(Cc3cccc(-c4ncn(C5COC5)n4)c3)n2)cn1` [Example 707, 1-(1-Methyl-1H-pyrazol-4-yl)-3-{3-[1-(oxetan-3-yl)-1H-1,2,4-triazol-3-yl]benzyl}pyridazin-4(1H)-one], the IC50 was 100 to 1000 nM.
In the case of `CCn1cnc(-c2cccc(Cc3nn(-c4cnn(C)c4)ccc3=O)c2)n1` [Example 708, 3-[3-(1-ethyl-1H-1,2,4-triazol-3-yl)benzyl]-1-(1-methyl-1H-pyrazol-4-yl)pyridazin-4(1H)-one], the IC50 is reported as under 100 nM.
